The target of this test is human TRPV1 (Homo sapiens, UniProt Q8NER1). The test can be described thus: inhibition of low pH-, capsaicin-, anandamide- and NADA-stimulation of human TRPV1. The test is classed as cell-based. From the text: The compounds of formulae (I) and (Ia) and I(B) in crystal form B, and their pharmaceutically acceptable salts and, where possible, pharmaceutically acceptable acid addition salts, have beneficial pharmacological activity and, therefore, are useful as pharmaceuticals.

The structures appear in SMILES notation.

Chain of human TRPV1 (Q8NER1 whole entry): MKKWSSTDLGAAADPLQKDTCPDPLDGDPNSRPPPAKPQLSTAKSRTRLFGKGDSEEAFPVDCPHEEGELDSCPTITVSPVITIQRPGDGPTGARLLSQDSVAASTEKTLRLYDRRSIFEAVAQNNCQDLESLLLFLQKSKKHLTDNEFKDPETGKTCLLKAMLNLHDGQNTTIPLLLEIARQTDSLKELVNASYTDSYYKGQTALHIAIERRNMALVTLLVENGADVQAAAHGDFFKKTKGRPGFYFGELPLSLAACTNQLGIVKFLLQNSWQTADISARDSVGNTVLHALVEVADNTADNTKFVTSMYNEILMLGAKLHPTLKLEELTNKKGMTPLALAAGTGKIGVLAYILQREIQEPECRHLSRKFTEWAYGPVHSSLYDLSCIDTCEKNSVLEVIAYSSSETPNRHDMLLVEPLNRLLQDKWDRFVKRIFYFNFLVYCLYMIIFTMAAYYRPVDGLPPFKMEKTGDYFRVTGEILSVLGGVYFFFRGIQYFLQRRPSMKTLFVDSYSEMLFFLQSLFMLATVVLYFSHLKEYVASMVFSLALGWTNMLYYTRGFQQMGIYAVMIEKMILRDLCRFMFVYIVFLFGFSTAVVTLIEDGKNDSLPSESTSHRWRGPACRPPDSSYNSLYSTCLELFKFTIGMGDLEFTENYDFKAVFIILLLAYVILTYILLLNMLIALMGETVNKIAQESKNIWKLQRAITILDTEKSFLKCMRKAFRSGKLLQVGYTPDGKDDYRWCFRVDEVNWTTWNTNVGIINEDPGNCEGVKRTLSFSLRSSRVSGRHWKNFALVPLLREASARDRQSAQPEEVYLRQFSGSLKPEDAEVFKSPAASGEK

`CC(C)c1nc2cc(O)ccc2c(=O)n1-c1ccc(C#N)cc1` [Example 1, 4-(7-hydroxy-2-isopropyl-4-oxo-4H-quinazolin-3-yl)-benzonitrile crystal form B]: the “nature of antagonist activity at human TRPV1” value was “non-competitive and reversible”. The midpoint of inhibition (IC50, inhibition of NADA-stimulation of human TRPV1, stimulus: NADA), the IC50, lay at 27 nM. For the same molecule, for the setting “IC50, inhibition of anandamide-stimulation of human TRPV1, stimulus: anandamide”, the midpoint of inhibition, the IC50, lay at 10 nM. In addition, the IC50 (as a rule, the concentration that gives 50% inhibition) (IC50, inhibition of capsaicin-stimulation of human TRPV1, stimulus: capsaicin) was found to be 12 nM. Besides, the half-maximal inhibitory concentration (IC50) (IC50, inhibition of low pH-stimulation of human TRPV1, stimulus: low pH) stood at 5 nM.

The values above are taken from patent US8349852B2, “Quinazolinone derivatives useful as vanilloid antagonists” (Novartis AG, priority 2009, dated 2013).
